Data: patent US6150376A, “Bi- and tri-cyclic aza compounds and their uses” (Georgetown University, priority 1998, dated 2000)

Legend:
dopamine transporter [1] = target: T1, dopamine transporter (Rattus norvegicus, UniProt P23977); experiment: [3H]Mazindol binding at the dopamine transporter; settings: for Ki: Ki ± SE, Krebs-Ringer-HEPES buffer
T1 construct: from tissue
Experimental: (§1) Various isomeric forms of front-bridged Compounds 4, 5, 29, 30, 31, 40 and 50a and back-bridged Compounds 41, 42a, 42b, 49a and 50a were assayed for binding at the dopamine transporter and for inhibition of monamine re-uptake at the dopamine, serotonin and norepinephrine transporters. Mazindol binding were measured as previously described in Johnson et. al., 1992, Eur. J. Pharmacol., Mol. Pharmacol. Sect., 227:411-415. Reuptake inhibition was measured essentially as described in Yi et. al., 1991, Neuropharmacol. 29:475-486, except that an identical Krebs-Ringer-HEPES buffer was used for binding and all uptake assays (Slusher et al., 1997, Drug Alcohol Depend. 48:43-50).

dopamine transporter [2] = target: T1, dopamine transporter; experiment: [3H]DA uptake (re-uptake inhibition at the dopamine transporter); assay type: biochemical; settings: for Ki: Ki ± SE, Krebs-Ringer-HEPES buffer; for higher activity / selectivity at the DAT over the 5-HTT: reuptake inhibition, DAT over 5-HTT
Experimental: as §1

serotonin transporter = target: T2, serotonin transporter (Rattus norvegicus, UniProt P31652); experiment: [3H]5-HT uptake (re-uptake inhibition at the serotonin transporter); assay type: biochemical; settings: for Ki: Ki ± SE, Krebs-Ringer-HEPES buffer; for 5-HT/DA (ratio of uptake Ki): ratio of 5-HT uptake Ki to DA uptake Ki
T2 construct: from tissue
Experimental: as §1

[3] = target: T3, norepinephrine transporter (Rattus norvegicus, UniProt Q63380); experiment: [3H]NE uptake (re-uptake inhibition at the norepinephrine transporter); assay type: biochemical; settings: Ki ± SE; Krebs-Ringer-HEPES buffer
T3 construct: from tissue
Experimental: as §1

[4] = Preskorn, 1994; cited from earlier work
[5] = system: serotonin and norepinephrine re-uptake; settings: in words; cited from earlier work

T1 sequence (P23977 whole entry): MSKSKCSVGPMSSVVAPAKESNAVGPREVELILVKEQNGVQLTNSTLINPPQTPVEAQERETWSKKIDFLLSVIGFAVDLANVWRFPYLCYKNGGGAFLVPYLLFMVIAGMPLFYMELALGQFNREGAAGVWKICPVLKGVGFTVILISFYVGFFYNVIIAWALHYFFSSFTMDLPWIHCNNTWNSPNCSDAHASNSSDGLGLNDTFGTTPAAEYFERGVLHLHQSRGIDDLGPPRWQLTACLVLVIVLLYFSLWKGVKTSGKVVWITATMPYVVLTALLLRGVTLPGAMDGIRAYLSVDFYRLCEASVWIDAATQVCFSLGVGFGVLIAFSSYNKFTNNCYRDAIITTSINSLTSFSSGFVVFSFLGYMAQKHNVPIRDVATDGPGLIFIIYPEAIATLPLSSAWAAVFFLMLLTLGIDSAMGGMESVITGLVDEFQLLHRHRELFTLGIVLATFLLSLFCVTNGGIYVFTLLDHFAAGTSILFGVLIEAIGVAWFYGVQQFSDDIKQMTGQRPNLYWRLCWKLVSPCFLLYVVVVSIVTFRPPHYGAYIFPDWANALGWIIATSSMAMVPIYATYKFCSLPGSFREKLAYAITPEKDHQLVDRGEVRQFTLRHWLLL
T2 sequence (P31652 whole entry): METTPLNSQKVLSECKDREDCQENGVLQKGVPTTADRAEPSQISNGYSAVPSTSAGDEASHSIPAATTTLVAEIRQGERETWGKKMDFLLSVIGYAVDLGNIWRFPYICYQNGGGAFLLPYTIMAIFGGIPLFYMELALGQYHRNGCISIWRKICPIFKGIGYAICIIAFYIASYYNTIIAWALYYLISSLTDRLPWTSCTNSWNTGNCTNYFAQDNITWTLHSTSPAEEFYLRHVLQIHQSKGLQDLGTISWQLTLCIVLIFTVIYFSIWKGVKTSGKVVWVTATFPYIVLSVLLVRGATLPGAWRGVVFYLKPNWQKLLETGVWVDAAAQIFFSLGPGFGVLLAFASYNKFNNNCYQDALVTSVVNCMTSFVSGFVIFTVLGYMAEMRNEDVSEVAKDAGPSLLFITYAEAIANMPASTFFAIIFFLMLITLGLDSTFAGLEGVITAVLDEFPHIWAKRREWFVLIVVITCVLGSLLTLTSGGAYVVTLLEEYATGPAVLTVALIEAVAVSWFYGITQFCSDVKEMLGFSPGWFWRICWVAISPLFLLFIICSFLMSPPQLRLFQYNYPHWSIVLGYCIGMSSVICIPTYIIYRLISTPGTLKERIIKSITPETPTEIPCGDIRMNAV
T3 sequence (Q63380 1-617): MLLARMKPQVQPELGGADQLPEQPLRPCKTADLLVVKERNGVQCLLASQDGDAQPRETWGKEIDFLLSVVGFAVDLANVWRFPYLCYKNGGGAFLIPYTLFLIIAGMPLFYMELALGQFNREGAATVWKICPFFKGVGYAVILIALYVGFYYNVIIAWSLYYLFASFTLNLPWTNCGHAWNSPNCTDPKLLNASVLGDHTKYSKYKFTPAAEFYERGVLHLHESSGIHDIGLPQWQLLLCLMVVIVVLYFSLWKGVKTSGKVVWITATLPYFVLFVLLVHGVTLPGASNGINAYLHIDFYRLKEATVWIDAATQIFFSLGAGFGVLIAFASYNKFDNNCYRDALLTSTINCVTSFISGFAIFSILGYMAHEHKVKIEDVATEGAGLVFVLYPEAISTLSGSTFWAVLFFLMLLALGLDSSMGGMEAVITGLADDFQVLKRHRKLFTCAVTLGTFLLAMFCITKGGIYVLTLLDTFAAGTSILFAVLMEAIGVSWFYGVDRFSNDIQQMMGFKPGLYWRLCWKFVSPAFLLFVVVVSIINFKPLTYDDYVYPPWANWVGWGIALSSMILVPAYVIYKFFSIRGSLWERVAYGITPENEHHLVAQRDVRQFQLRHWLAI

Compound	Ki (dopamine transporter [1]) [nM]	Ki (dopamine transporter [2]) [nM]	Ki (serotonin transporter) [nM]	5-HT/DA (ratio of uptake Ki) (serotonin transporter)	Ki [3] [nM]	more active at the 5-HTT (5-HTT/NET selectivity) (serotonin transporter; reuptake inhibition, 5-HTT over NET) [fold]	higher activity / selectivity at the DAT over the 5-HTT (dopamine transporter [2]) [fold]	binding potency relative to (-)-40 (dopamine transporter [1]; in words)	time to full antidepressant effect [4] [days]	selectivity for serotonin (dual serotonin and norepinephrine re-uptake inhibitor) [5]
(1SR, 2SR, 3RS, 5RS, 7SR)-2-butyl-methylphenyl)-10-azatricyclo [5.3.0.0^5,10 ]decane [Compound 50a]	149 ± 5.75	149 ± 2.13	810 ± 79.5	5.4	51.7 ± 12	–	–	–	–	–
O=C1CN2CCC(c3ccc(Cl)cc3)C1C2 (stereo not drawn) [Compound (-)-4]	10500 ± 930	16500 ± 970	1890 ± 440	0.11	70900 ± 18000	38	–	–	–	–
O=C1CN2CCC(c3ccc(Cl)cc3)C1C2 (stereo not drawn) [Compound (+)-4]	18500 ± 2700	27600 ± 1000	4630 ± 760	0.16	38300 ± 4610	–	–	–	–	–
O=C1CN2CCC(c3ccc(Cl)cc3)C1C2 (stereo not drawn) [Compound (-)-5]	9740 ± 160	9050 ± 460	11900 ± 610	1.3	4650 ± 440	–	1.3	–	–	–
C=C1CN2C3CCC2C1C(c1ccc(C)cc1)C3 (racemic) [Compound (±)-40]	61.7 ± 8.5	60.3	2.32 ± 0.23	0.038	2.69 ± 0.12	–	–	only slightly decreased from that of the (-)-40	–	–
COc1ccc(C(CN(C)C)C2(O)CCCCC2)cc1 (stereo not drawn) [venlafaxine]	–	–	–	–	–	–	–	–	4 to 7	five-fold selectivity for serotonin
O=C1CN2CCC(c3ccc(Cl)cc3)C1C2 (stereo not drawn) [Compound (+)-5]	6770 ± 500	10500 ± 450	25100 ± 3600	2.4	4530 ± 410	–	2.4	–	–	–
CCCC[C@@H]1CC[C@@H]2C3CN[C@H]2C[C@@]31c1ccc(C)cc1 (racemic) [Compound 42a, (1SR, 3SR, 4RS, 5SR, 7RS)-4-butyl-3-(4-methylphenyl)-10-azatricyclo[5.3.0.0^3,8]decane]	4 ± 0.07	2.23 ± 0.12	14 ± 0.58	6.3	2.99 ± 0.17	–	–	–	–	–
(1R, 2S, 4R, 7S)-(-)-10-methylene-2-(p-tolyl)-8-azatricyclo [5.2.0.0^4.8 ] decane [Compound (-)-40]	54.3 ± 10.2	60.3 ± 0.4	1.76	0.029	5.24 ± 0.07	–	–	–	–	–
Cc1ccc(C2CC3CCC4C2c2ccccc2CN34)cc1 (racemic) [Compound 45]	6.86 ± 0.43	23.9 ± 1.33	1.77	0.074	1.06 ± 0.03	–	–	–	–	–
